{
  "source": "paper PMC11714206",
  "about": "“Massively Parallel Screening of Toll/Interleukin‐1 Receptor (TIR)‐Derived Peptides Reveals Multiple Toll‐Like Receptors (TLRs)‐Targeting Immunomodulatory Peptides” (Advanced Science, 2024)",
  "molecular_target": "T1, MyD88^TIR (Homo sapiens, UniProt Q99836)",
  "T1 construct": "MyD88 (residues 148–296); 6xHis; made in house; host or cells: E. coli BL21 (DE3)",
  "T1 sequence (Q99836 148-296)": "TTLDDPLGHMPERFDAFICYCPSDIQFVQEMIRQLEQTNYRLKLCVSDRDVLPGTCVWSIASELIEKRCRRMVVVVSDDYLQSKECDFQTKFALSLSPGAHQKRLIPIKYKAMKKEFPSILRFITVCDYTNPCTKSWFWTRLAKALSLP",
  "assay": "T‐Surf phage library (P8 and P3) selection against MyD88^TIR, four rounds, NGS read counts",
  "assay_type": "binding",
  "details": "for P3_MyD88 Rank (after) / P3_MyD88 Rank (before): P3 library; for P8_MyD88 Rank (after) / P8_MyD88 Rank (before): P8 library",
  "in_short": "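Coat TIR domain 5 µg mL^−1 overnight; block 0.2% BSA/PBS 1 h, 4 °C; add phage library 1 h, RT; wash ×4 PBS/0.5% Tween‐20; elute 100 mM HCl, neutralize Tris; amplify in TG1, PEG‐precipitate. Repeat to round 4; barcode PCR, NovaSeq, count reads.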",
  "key": {"[1]": {"details": "4R selection against MyD88, rank after grouping"}, "[2]": {"details": "4R selection against MyD88, rank before grouping"}, "[3]": {"details": "P8_MyD88: rank by NGS read count after grouping"}, "[4]": {"details": "P8_MyD88: rank by NGS read count before grouping"}, "[5]": {"details": "selection against MyD88, rank after grouping"}, "[6]": {"details": "selection against MyD88, rank before grouping"}, "[7]": {"details": "selection against MyD88, rank by count after grouping"}, "[8]": {"details": "selection against MyD88, rank by count before grouping"}, "[9]": {"details": "selection against MyD88 TIR, rank by count after grouping"}, "[10]": {"details": "selection against MyD88 TIR, rank by count before grouping"}, "[11]": {"details": "P8_MyD88: rank by count after grouping"}, "[12]": {"details": "P8_MyD88: rank by count before grouping"}, "[13]": {"details": "P3_MyD88: rank by count after grouping"}, "[14]": {"details": "P3_MyD88: rank by count before grouping"}},
  "note": "“And” between values parts separate entries of the source, which are not always exact repeats. Equal values may be shown once.",
  "data": [
    {"sequence": "RISAFHKQLVMAVKAQ", "values": [
      {"measurement": "P3_MyD88 Rank (after)", "setting": "[1]", "result": 674},
      {"measurement": "P3_MyD88 Rank (before)", "setting": "[2]", "result": 2608}
    ]},
    {"sequence": "DPQELDWFYERLVSLF", "values": [
      {"measurement": "Population", "setting": "P8_MyD88 pool: P8 T-Surf phage library, 4th round of selection against MyD88 TIR, share of NGS reads", "result": "0.02% and 0.0158%"}
    ]},
    {"sequence": "YASYDDNYYYWVTHVLLRRL", "values": [
      {"measurement": "Rank (after)", "setting": "[3]", "result": 969},
      {"measurement": "Rank (before)", "setting": "[4]", "result": 1775}
    ]},
    {"sequence": "YAASPWWFDDIQQIQLFWD", "values": [
      {"measurement": "P8_MyD88 Rank (after)", "setting": "[5]", "result": 543},
      {"measurement": "P8_MyD88 Rank (before)", "setting": "[6]", "result": 1720}
    ]},
    {"sequence": "WALDELLQILHVSEMF", "values": [
      {"measurement": "P8_MyD88 Rank (after)", "setting": "[7]", "result": 747},
      {"measurement": "P8_MyD88 Rank (before)", "setting": "[8]", "result": 1418}
    ]},
    {"sequence": "SPWALYELAMIIEAM", "values": [
      {"measurement": "P8_MyD88 Rank (after)", "setting": "[5]", "result": 503},
      {"measurement": "P8_MyD88 Rank (before)", "setting": "[6]", "result": 3761}
    ]},
    {"sequence": "DTKLKKGESIAPALMR", "values": [
      {"measurement": "P3_MyD88 Rank (after)", "setting": "[7]", "result": 704},
      {"measurement": "P3_MyD88 Rank (before)", "setting": "[8]", "result": 2101}
    ]},
    {"sequence": "NNLFNELVSKNIRTLM", "values": [
      {"measurement": "P3_MyD88 Rank (after)", "setting": "[9]", "result": 237},
      {"measurement": "P3_MyD88 Rank (before)", "setting": "[10]", "result": 3559}
    ]},
    {"sequence": "SSFRDDLWRLLELSKK", "values": [
      {"measurement": "P3_MyD88 Rank (after)", "setting": "[1]", "result": 582},
      {"measurement": "P3_MyD88 Rank (before)", "setting": "[2]", "result": 3135}
    ]},
    {"sequence": "LGYHWIDLGYFVGIED", "values": [
      {"measurement": "P8_MyD88 Rank (after)", "setting": "[7]", "result": 767},
      {"measurement": "P8_MyD88 Rank (before)", "setting": "[8]", "result": 3249}
    ]},
    {"sequence": "DPQDLEWFYERLVSRF", "values": [
      {"measurement": "P8_MyD88 Rank (after)", "setting": "[9]", "result": 266},
      {"measurement": "P8_MyD88 Rank (before)", "setting": "[10]", "result": 2851}
    ]},
    {"sequence": "DHHLDLLRGIAIKLEILG", "values": [
      {"measurement": "P3_MyD88 Rank (after)", "setting": "[7]", "result": 722},
      {"measurement": "P3_MyD88 Rank (before)", "setting": "[8]", "result": 1998}
    ]},
    {"sequence": "YELDFSHFWLFDGHATGEA", "values": [
      {"measurement": "P8_MyD88 Rank (after)", "setting": "[9]", "result": 239},
      {"measurement": "P8_MyD88 Rank (before)", "setting": "[10]", "result": 1938}
    ]},
    {"sequence": "DPQDLDWIYERLVCLF", "values": [
      {"measurement": "P8_MyD88 Rank (after)", "setting": "[7]", "result": 732},
      {"measurement": "P8_MyD88 Rank (before)", "setting": "[8]", "result": 2830}
    ]},
    {"sequence": "WALSELVEILRARENM", "values": [
      {"measurement": "P8_MyD88 Rank (after)", "setting": "[9]", "result": 195},
      {"measurement": "P8_MyD88 Rank (before)", "setting": "[10]", "result": 254}
    ]},
    {"sequence": "DLLRHLIEAFSRMHIN", "values": [
      {"measurement": "Rank (after)", "setting": "[3]", "result": 940},
      {"measurement": "Rank (before)", "setting": "[4]", "result": 2389}
    ]},
    {"sequence": "FFSGFREQEDFISKRW", "values": [
      {"measurement": "P8_MyD88 Rank (after)", "setting": "[7]", "result": 681},
      {"measurement": "P8_MyD88 Rank (before)", "setting": "[8]", "result": 1297}
    ]},
    {"sequence": "SENYATSPWALMNWC", "values": [
      {"measurement": "P3_MyD88 Rank (after)", "setting": "[1]", "result": 655},
      {"measurement": "P3_MyD88 Rank (before)", "setting": "[2]", "result": 2985}
    ]},
    {"sequence": "NSSWALEELVKIMEAM", "values": [
      {"measurement": "Rank (after)", "setting": "[11]", "result": 186},
      {"measurement": "Rank (before)", "setting": "[12]", "result": 239}
    ]},
    {"sequence": "LKGGDPYFWSKLRYTM", "values": [
      {"measurement": "Rank (after)", "setting": "[13]", "result": 159},
      {"measurement": "Rank (before)", "setting": "[14]", "result": 2531}
    ]},
    {"sequence": "LGYHWMEWEYVVGIED", "values": [
      {"measurement": "Rank (after)", "setting": "[3]", "result": 960},
      {"measurement": "Rank (before)", "setting": "[4]", "result": 3299}
    ]},
    {"sequence": "EDTLIRLLVQRIMKEL", "values": [
      {"measurement": "Rank (after)", "setting": "[11]", "result": 173},
      {"measurement": "Rank (before)", "setting": "[12]", "result": 198}
    ]},
    {"sequence": "RISAFHQQLVIALEAQ", "values": [
      {"measurement": "P3_MyD88 Rank (after)", "setting": "[1]", "result": 650},
      {"measurement": "P3_MyD88 Rank (before)", "setting": "[2]", "result": 2595}
    ]},
    {"sequence": "KNLIMEQLSKELHTVM", "values": [
      {"measurement": "P3_MyD88 Rank (after)", "setting": "[7]", "result": 724},
      {"measurement": "P3_MyD88 Rank (before)", "setting": "[8]", "result": 3792}
    ]},
    {"sequence": "SENYATSPWAPELLR", "values": [
      {"measurement": "P3_MyD88 Rank (after)", "setting": "[1]", "result": 658},
      {"measurement": "P3_MyD88 Rank (before)", "setting": "[2]", "result": 2990}
    ]},
    {"sequence": "YTALTNSGFHIFSANG", "values": [
      {"measurement": "P3_MyD88 Rank (after)", "setting": "[5]", "result": 497},
      {"measurement": "P3_MyD88 Rank (before)", "setting": "[6]", "result": 1664}
    ]},
    {"sequence": "YAASPWWFDELVRIVC", "values": [
      {"measurement": "Rank (after)", "setting": "[11]", "result": 407},
      {"measurement": "Rank (before)", "setting": "[12]", "result": 1723}
    ]},
    {"sequence": "DLLVLEWFYERVFSQM", "values": [
      {"measurement": "P8_MyD88 Rank (after)", "setting": "[7]", "result": 713},
      {"measurement": "P8_MyD88 Rank (before)", "setting": "[8]", "result": 2590}
    ]},
    {"sequence": "DPQDLEWFYERLFSLI", "values": [
      {"measurement": "P8_MyD88 Rank (after)", "setting": "[9]", "result": 209},
      {"measurement": "P8_MyD88 Rank (before)", "setting": "[10]", "result": 1112}
    ]},
    {"sequence": "IDDHHLTFLVSLLLSL", "values": [
      {"measurement": "Rank (after)", "setting": "[3]", "result": 975},
      {"measurement": "Rank (before)", "setting": "[4]", "result": 3651}
    ]},
    {"sequence": "SIWWILNELQEILNYQ", "values": [
      {"measurement": "P8_MyD88 Rank (after)", "setting": "[5]", "result": 542},
      {"measurement": "P8_MyD88 Rank (before)", "setting": "[6]", "result": 3800}
    ]},
    {"sequence": "SSLREGLWRLQELSKK", "values": [
      {"measurement": "Rank (after)", "setting": "[13]", "result": 135},
      {"measurement": "Rank (before)", "setting": "[14]", "result": 3273}
    ]},
    {"sequence": "DEAWFLTKLRISLEHL", "values": [
      {"measurement": "P8_MyD88 Rank (after)", "setting": "[5]", "result": 576},
      {"measurement": "P8_MyD88 Rank (before)", "setting": "[6]", "result": 2581}
    ]},
    {"sequence": "SELRVVDDGSVSPLK", "values": [
      {"measurement": "P3_MyD88 Rank (after)", "setting": "[9]", "result": 210},
      {"measurement": "P3_MyD88 Rank (before)", "setting": "[10]", "result": 3038}
    ]},
    {"sequence": "SSWREGLCRLLELRNK", "values": [
      {"measurement": "P3_MyD88 Rank (after)", "setting": "[5]", "result": 501},
      {"measurement": "P3_MyD88 Rank (before)", "setting": "[6]", "result": 3264}
    ]}
  ]
}
